Data taken from ChEMBL document CHEMBL3414572, “Identification of fused 16β,17β-oxazinone-estradiol derivatives as a new family of non-estrogenic 17β-hydroxysteroid dehydrogenase type 1 inhibitors” (Eur J Med Chem, 2015).
Each block holds one compound with its values, some of them ahead of it. Calls of active or inactive are those of the source. No cut-off for these calls is given here.

How the values were obtained:
[1] = biological target: T1, 17-beta-hydroxysteroid dehydrogenase type 1 (Homo sapiens) (UniProt P14061); assay: Inhibition of 17 beta-HSD1 in human T47D cells assessed as inhibition of transformation of [14C]E1 to [14C]E2 at 10 uM after overnight incubation; assay type: cell-based
T1 sequence (whole entry): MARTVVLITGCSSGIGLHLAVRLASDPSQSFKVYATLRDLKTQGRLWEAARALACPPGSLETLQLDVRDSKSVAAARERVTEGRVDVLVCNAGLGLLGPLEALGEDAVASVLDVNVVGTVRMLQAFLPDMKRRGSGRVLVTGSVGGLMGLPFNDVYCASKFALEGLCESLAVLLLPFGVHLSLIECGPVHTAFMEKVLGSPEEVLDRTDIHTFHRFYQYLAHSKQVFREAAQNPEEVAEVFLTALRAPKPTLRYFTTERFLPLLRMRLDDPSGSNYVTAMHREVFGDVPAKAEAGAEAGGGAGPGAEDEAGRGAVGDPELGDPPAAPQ

T47D [2] = assay: Estrogenic activity in human T47D cells assessed as cell proliferation at 0.5 uM incubated for 7 days with replacement of media in every 2 days by CellTitre-Glo assay; assay type: functional
T47D [3] = assay: Estrogenic activity in human T47D cells assessed as cell proliferation at 0.1 uM incubated for 7 days with replacement of media in every 2 days by CellTitre-Glo assay; assay type: functional
[4] = biological target: T2, 17-beta-hydroxysteroid dehydrogenase type 1 (Homo sapiens, UniProt P14061); assay: Inhibition of 17 beta-HSD1 in human T47D cells assessed as inhibition of transformation of [14C]E1 to [14C]E2 after overnight incubation; assay type: cell-based
T2 sequence (P14061 whole entry): T1 sequence (whole entry)

[5] = biological target: T3, 17-beta-hydroxysteroid dehydrogenase type 2 (Homo sapiens) (UniProt P37059); assay: Inhibition of 17 beta-HSD2 (unknown origin) transfected in HEK293 cells using [14C]E2 as substrate at 1 uM; assay type: cell-based
T3 sequence (whole entry): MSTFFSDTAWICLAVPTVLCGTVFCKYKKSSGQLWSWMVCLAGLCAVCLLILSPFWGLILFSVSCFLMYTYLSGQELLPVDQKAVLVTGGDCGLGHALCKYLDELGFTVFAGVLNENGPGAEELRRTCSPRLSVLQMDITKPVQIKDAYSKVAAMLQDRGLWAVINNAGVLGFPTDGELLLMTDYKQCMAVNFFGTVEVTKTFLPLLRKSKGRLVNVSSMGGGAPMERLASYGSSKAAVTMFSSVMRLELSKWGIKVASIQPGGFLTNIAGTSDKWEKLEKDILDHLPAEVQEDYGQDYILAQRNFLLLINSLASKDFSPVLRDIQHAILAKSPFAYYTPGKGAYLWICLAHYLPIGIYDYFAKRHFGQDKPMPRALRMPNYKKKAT

[6] = biological target: T3, 17-beta-hydroxysteroid dehydrogenase type 2 (Homo sapiens); assay: Inhibition of 17 beta-HSD2 (unknown origin) transfected in HEK293 cells using [14C]E2 as substrate at 10 uM; assay type: cell-based
[7] = biological target: T4, Very-long-chain 3-oxoacyl-CoA reductase (Homo sapiens) (UniProt Q53GQ0); assay: Inhibition of 17 beta-HSD12 (unknown origin) at 10 uM
T4 sequence (whole entry): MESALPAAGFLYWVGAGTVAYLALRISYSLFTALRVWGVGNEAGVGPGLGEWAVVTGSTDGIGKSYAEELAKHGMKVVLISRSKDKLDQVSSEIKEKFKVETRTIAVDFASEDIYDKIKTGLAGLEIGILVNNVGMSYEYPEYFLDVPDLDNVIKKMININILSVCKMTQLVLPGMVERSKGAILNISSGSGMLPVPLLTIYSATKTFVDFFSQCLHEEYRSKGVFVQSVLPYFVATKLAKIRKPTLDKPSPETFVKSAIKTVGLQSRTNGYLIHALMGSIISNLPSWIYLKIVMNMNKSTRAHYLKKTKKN

SMILES: CCCCCCCCN1C(=O)O[C@@H]2[C@@]3(C)CC[C@@H]4c5ccc(O)cc5CC[C@H]4[C@@H]3C[C@]2(O)[C@@H]1c1cccc(C(N)=O)c1
inhibition [1]: Active

SMILES: CCN1C(=O)O[C@H]2C(=C[C@H]3[C@@H]4CCc5cc(O)ccc5[C@H]4CC[C@]23C)[C@@H]1c1cccc(C(N)=O)c1
inhibition [1]: Active

SMILES: C[C@]12CC[C@@H]3c4ccc(O)cc4CC[C@H]3[C@@H]1CC[C@@H]2O [ESTRADIOL]
growth at 0.5 µM (T47D [2]; read-out: Activity): 380%
growth at 0.1 µM (T47D [3]; read-out: Activity): 320%

SMILES: CCCCCCN1C(=O)O[C@@H]2[C@@]3(C)CC[C@@H]4c5ccc(O)cc5CC[C@H]4[C@@H]3C[C@]2(O)[C@@H]1c1cccc(C(N)=O)c1
Activity (T47D [2]): Active
inhibition [1]: Active
IC50 [4]: 6.6 µM

SMILES: CCCCN1C(=O)O[C@@H]2[C@@]3(C)CC[C@@H]4c5ccc(O)cc5CC[C@H]4[C@@H]3C[C@]2(O)[C@@H]1c1cccc(C(N)=O)c1
inhibition [1]: Active

SMILES: CCN1C(=O)O[C@@H]2[C@@]3(C)CC[C@@H]4c5ccc(O)cc5CC[C@H]4[C@@H]3C[C@]2(O)[C@@H]1c1cccc(C(N)=O)c1
inhibition [1]: Active

Now from value to compound, other results behind:

inhibition [1]: Active
SMILES: CCCCCCCCN1C(=O)O[C@H]2C(=C[C@H]3[C@@H]4CCc5cc(O)ccc5[C@H]4CC[C@]23C)[C@@H]1c1cccc(C(N)=O)c1

inhibition [5]: 10%
inhibition [6]: 15%
inhibition [1]: Active
inhibition [7]: inactive
IC50 [4]: 1.4 µM
SMILES: CCCCN1C(=O)O[C@H]2C(=C[C@H]3[C@@H]4CCc5cc(O)ccc5[C@H]4CC[C@]23C)[C@@H]1c1cccc(C(N)=O)c1
Activity (T47D [2]): inactive
Activity (T47D [3]): inactive

inhibition [1]: Active
SMILES: CCCCCCN1C(=O)O[C@H]2C(=C[C@H]3[C@@H]4CCc5cc(O)ccc5[C@H]4CC[C@]23C)[C@@H]1c1cccc(C(N)=O)c1
